{"source": "patent US20200155526A1", "about": "“TARGETING LYSINE DEMETHYLASES (KDMS) AS A THERAPEUTIC STRATEGY FOR DIFFUSE LARGE B-CELL LYMPHOMA” (THE CHILDREN'S MEDICAL CENTER CORPORATION, priority 2017, published 2020)", "key": {"OCI-Ly1": {"system": "OCI-Ly1", "test": "OCI-Ly1 sensitivity assay (CTG viability)", "format": "cell-based, human", "conditions": "for OCI-Ly1 cell viability, Jumonji-inhibitors: OCI-Ly1, range tested, FIG. 5", "experimental": "(§1) For the Cell Titer Glo assays (CTG), between 3000-10,000 cells were plated in a 96 well plate (in triplicates). The cells were allowed to settle for 24 hours before either small molecule(s) or DMSO was added at indicated concentrations. The treatment was performed for indicated days (preferably 2 days for a “snap-shot” experiments). CTG signal was used to assess viability after 2 days according to manufacturer's protocol (Promega Corporation; Madison, Wis.).\nWhen performing the comparative test of GSK126 and JIB04, daily readings were taken using the manufacturer's protocol for CTG signal after day 2 (for JIB04), and after day 5 (for GSK126).\nFor OCI-Ly1 sensitivity assay, OCI-Ly1 cells were grown at a density of 1-3×10^6 cells/mL and 3000-10,000 cells were plated in a 96-well plate (in triplicates). The cells were allowed to settle for 24 hours before either the indicated small molecule(s) or DMSO was added at indicated concentrations. CTG signal was used to assess viability after 2 days according to manufacturer's protocol (Promega Corporation; Madison, Wis.). Small molecules used in each experiment are stated in the respective figures along with their concentrations. Results are shown in FIGS. 10, 11, 13, 14, 15, 16 and 22."}, "DB": {"system": "DB", "test": "Cell Titer Glo (CTG) viability, JIB04 dose response", "format": "cell-based", "conditions": "Homo sapiens, 48 h; DB (DLBCL), 2 days treatment, FIG. 2", "experimental": "as §1"}, "Farage": {"system": "Farage", "test": "Cell Titer Glo (CTG) viability, JIB04 dose response", "format": "cell-based", "conditions": "48 h; Farage (DLBCL), 2 days treatment, FIG. 2", "experimental": "as §1"}, "HL-60": {"system": "HL-60", "test": "Cell Titer Glo (CTG) viability, JIB04 dose response", "format": "cell-based", "conditions": "Homo sapiens, 48 h; HL-60 (leukemia), 2 days treatment, FIG. 2; read-out: effective EC50", "experimental": "as §1"}, "Jurkat": {"system": "Jurkat", "test": "Cell Titer Glo (CTG) viability, JIB04 dose response", "format": "cell-based", "conditions": "Homo sapiens, 48 h; Jurkat (leukemia), 2 days treatment, FIG. 2; read-out: effective EC50", "experimental": "as §1"}, "MV4-11": {"system": "MV4-11", "test": "Cell Titer Glo (CTG) viability, JIB04 dose response", "format": "cell-based", "conditions": "Homo sapiens, 48 h; MV4-11 (leukemia), 2 days treatment, FIG. 2; read-out: effective EC50", "experimental": "as §1"}, "SUDHL5": {"system": "SUDHL5", "test": "Cell Titer Glo (CTG) viability, JIB04 dose response", "format": "cell-based", "conditions": "Homo sapiens, SU-DHL-5, 48 h; SUDHL5 (DLBCL), 2 days treatment, FIG. 2", "experimental": "as §1"}, "THP-1": {"system": "THP-1", "test": "Cell Titer Glo (CTG) viability, JIB04 dose response", "format": "cell-based", "conditions": "Homo sapiens, 48 h; THP-1 (leukemia), 2 days treatment, FIG. 2; read-out: effective EC50", "experimental": "as §1"}, "Toledo": {"system": "Toledo", "test": "Cell Titer Glo (CTG) viability, JIB04 dose response", "format": "cell-based", "conditions": "Homo sapiens, 48 h; Toledo (DLBCL), 2 days treatment, FIG. 2", "experimental": "as §1"}, "DLBCL cell lines": {"system": "DLBCL cell lines", "test": "Sensitivity of DLBCL cell lines (CTG viability)", "format": "cell-based", "experimental": "For the Cell Titer Glo assays (CTG), between 3000-10,000 cells were plated in a 96 well plate (in triplicates). The cells were allowed to settle for 24 hours before either small molecule(s) or DMSO was added at indicated concentrations. The treatment was performed for indicated days (preferably 2 days for a “snap-shot” experiments). CTG signal was used to assess viability after 2 days according to manufacturer's protocol (Promega Corporation; Madison, Wis.). For OCI-Ly1 sensitivity assay, OCI-Ly1 cells were grown at a density of 1-3×10^6 cells/mL and 3000-10,000 cells were plated in a 96-well plate (in triplicates). The cells were allowed to settle for 24 hours before either the indicated small molecule(s) or DMSO was added at indicated concentrations. CTG signal was used to assess viability after 2 days according to manufacturer's protocol (Promega Corporation; Madison, Wis.). Small molecules used in each experiment are stated in the respective figures along with their concentrations. Results are shown in FIGS. 10, 11, 13, 14, 15, 16 and 22."}, "lymphoma cell lines": {"system": "lymphoma cell lines", "test": "Annexin V staining apoptosis assay", "format": "cell-based", "conditions": "FIG. 4A", "experimental": "APC-Annexin V was obtained from BD Pharmingen (Franklin Lakes, N.J.), and Annexin V staining was performed as described by the manufacturer."}, "PARP": {"system": "PARP", "test": "Production of cleaved PARP", "format": "cell-based", "conditions": "FIG. 4B"}, "OCI-Ly1 cell lines": {"system": "OCI-Ly1 cell lines", "test": "Transcriptomics (RNA-seq, GSEA) of JIB04-treated cells", "format": "cell-based, human", "experimental": "(§2) Three independent cultures of OCI-Ly1 cell lines were grown till the cultures achieved the cell numbers of approximately 1-1.5*10^6 cells/ml, and then cells were treated with either DMSO or two different JIB04 concentrations (150 nM and 500 nM). RNA was isolated using Trizol method, followed by library preparation using NEBUltraII kit (New England Biolabs; Ipswich, Mass.). After high throughput sequencing of the libraries, FastQc was used for filtering and quality control of the reads followed by read alignment to hg19 assembly of the human genome. Reads were counted by TopHat, differential gene expression analysis was performed in Rstudio. GSEA was performed using the desktop client from the Broad Institute, and the GSEA output was visualized using Rstudio."}, "[1]": {"test": "Cell cycle analysis by propidium iodide staining", "format": "cell-based, human", "conditions": "different dosage and times, FIG. 7C", "excerpt": "Propidium Iodide Flow Cytometry Kit from Abcam was used to perform cell cycle analysis using propidium iodide staining according to manufacturer's protocol."}, "[2]": {"system": "Ikaros family members (IKZF1, IKZF3)", "test": "Immunoblotting of Ikaros family members and BCR signaling components", "format": "cell-based", "conditions": "JIB04 100 nM or 500 nM, FIG. 20", "experimental": "Effect of JIB-04 on Ikaros family members and proximal components of BCR signaling pathway was assayed as follows: One million cells growing under indicated conditions (DMSO or JIB04 treatment; 100 nM or 500 nM) were pelleted by centrifugation at 1000 rpm for 5 min, and then resuspended in RIPA buffer with protease and phosphatase inhibitors. The cell suspension was left on ice for 20 min, and then sonicated using Diagenode water-bath sonicator (15 s. on; 30 s. off, for 15 cycles at max power). After sonication, cell extract was spun at 12000 rpm for 20 min, and the supernatant was collected for immunoblotting. Immunoblotting was performed using standard methods, and the blots were probed using antibodies recognizing indicated proteins."}, "canonical Wnt signaling": {"system": "canonical Wnt signaling", "test": "Transcriptomics / ChIP-seq GSEA of Wnt signaling", "format": "cell-based", "conditions": "FIGS. 21A-21C", "experimental": "as §2\nCells were fixed with 1% formaldehyde for 10 minutes at room temperature before termination with 0.125 M glycine. Cells were then lysed in ChIP buffer (0.6% SDS, 10 mM EDTA, and 50 mM Tris-HCl, pH 8.1) and cross-linked chromatin was sonicated to obtain DNA fragments of 300-800 bp. […] Libraries were quantified by Qubit (Invitrogen), and sequenced using a HiSeq 2000 (Illumina) to generate 50 bp single end reads."}, "Ly1 cells [3]": {"system": "Ly1 cells", "test": "In vivo Ly1 luciferase model, bioluminescence imaging", "conditions": "NSG mice, 30 mg/kg, 3 times weekly, intra-peritoneal, 2 weeks post treatment, FIGS. 18A-18B", "experimental": "For in vivo studies, Ly1 cells, with a luciferase reporter or […], were administered to Nod/SCID− mice (NSG) (6-8 weeks) were used for tail vein injection. Mice administered the Ly1 cells comprising the luciferase reporter were imaged every week after injection using the IVIS Spectrum In Vivo Imaging System (Perkin Elmer). […] JIB04 was administered three times a week, for two weeks, via intra-peritoneal injection in a mix of 90% sesame oil and 10% DMSO mix (vehicle). Mice were imaged each week and images from pre-treatment and 2-weeks after start of treatment with 30 mg/kg (3× a week) JIB04 are shown in FIG. 18A (pre-treatment) and FIG. 18B (post-treatment)."}, "Ly1 cells [4]": {"system": "Ly1 cells", "test": "In vivo Ly1 model, Kaplan Meier survival", "conditions": "mice, compared to vehicle treated mice, FIG. 19", "excerpt": "Mice administered Ly1 cells without the luciferase reporter were monitored post administration, and fraction surviving was plotted (FIG. 19) using the Kaplan Meier Survival Analysis of Graphpad Prism."}, "[5]": {"conditions": "JIB04 150 nM and 500 nM, FIG. 7A"}}, "data": [{"smiles": "CC(C)c1c(-c2ccccc2)[nH]c2c(C#N)cnn2c1=O", "note": "[CPI-455]", "values": [{"measurement": "OCI-Ly1 cell viability, Jumonji-inhibitors", "setting": "OCI-Ly1", "result": "only JIB04 decreased OCI-Ly1 cell viability significantly"}]}, {"smiles": "CCOC(=O)CCNc1cc(N2CCc3ccccc3CC2)nc(-c2ccccn2)n1", "note": "[GSK-J4]", "values": [{"measurement": "OCI-Ly1 cell viability, Jumonji-inhibitors", "setting": "OCI-Ly1", "result": "only JIB04 decreased OCI-Ly1 cell viability significantly"}]}, {"smiles": "Clc1ccc(N/N=C(\\c2ccccc2)c2ccccn2)nc1", "note": "[JIB04, 5-Chloro-2-[(E)-2-[phenyl(pyridin-2-yl)methylidene]hydrazin-1-yl]pyridine]", "values": [{"measurement": "EC50", "setting": "DB", "result": "< 250", "unit": "nM"}, {"measurement": "EC50", "setting": "Farage", "result": "< 250", "unit": "nM"}, {"measurement": "EC50", "setting": "HL-60", "result": "~1000", "unit": "nM"}, {"measurement": "EC50", "setting": "Jurkat", "result": "~1000", "unit": "nM"}, {"measurement": "EC50", "setting": "MV4-11", "result": "~1000", "unit": "nM"}, {"measurement": "EC50", "setting": "SUDHL5", "result": "< 250", "unit": "nM"}, {"measurement": "EC50", "setting": "THP-1", "result": "~1000", "unit": "nM"}, {"measurement": "EC50", "setting": "Toledo", "result": "< 250", "unit": "nM"}, {"measurement": "EC50", "setting": "OCI-Ly1; Homo sapiens, 48 h, OCI-Ly1 (DLBCL), 2 days treatment, FIG. 2", "result": "< 250", "unit": "nM"}, {"measurement": "OCI-Ly1 cell viability, Jumonji-inhibitors", "setting": "OCI-Ly1", "result": "decreased OCI-Ly1 cell viability significantly"}, {"measurement": "JIB04 potency (CTG signal relative to DMSO) when combined with Ibrutinib", "setting": "OCI-Ly1; combined with Ibrutinib, compared to JIB04 alone, FIG. 16", "result": "increased"}, {"measurement": "reduction of CTG signal, E isomer versus Z isomer", "setting": "OCI-Ly1; trans configuration (E isomer) relative to cis configuration (Z isomer), FIG. 13", "result": "more is effective at reducing CTG signal relative to the cis configuration (Z isomer)"}, {"measurement": "sensitivity of GCB and ABC type DLBCL lines", "setting": "DLBCL cell lines; GCB and ABC type DLBCL", "result": "both of those lines are sensitive to JIB04"}, {"measurement": "annexin-V positive cells", "setting": "lymphoma cell lines", "result": "increase in annexin-V positive cells in a dose-dependent manner"}, {"measurement": "production of cleaved PARP", "setting": "PARP", "result": "increased production of cleaved PARP"}, {"measurement": "CDKN1A expression", "setting": "OCI-Ly1 cell lines; FIGS. 7B and 7C", "result": "significantly upregulated"}, {"measurement": "downregulated pathways (GSEA)", "setting": "OCI-Ly1 cell lines; [5]", "result": "downregulation of “E2F targets” and “Myc-targets”"}, {"measurement": "upregulated pathways (GSEA)", "setting": "OCI-Ly1 cell lines; [5]", "result": "upregulation of “apoptosis” and “p53”-pathways"}, {"measurement": "cell cycle", "setting": "[1]", "result": "cell cycle arrest"}, {"measurement": "levels of Ikaros family members", "setting": "[2]", "result": "downregulates levels of members of Ikaros family, such as IKZF1 and IKZF3"}, {"measurement": "canonical Wnt signaling", "setting": "canonical Wnt signaling", "result": "inhibits canonical Wnt signaling"}, {"measurement": "tumor burden", "setting": "Ly1 cells [3]", "result": "reduction in tumor burden within a short window of treatment"}, {"measurement": "survival", "setting": "Ly1 cells [4]", "result": "increased survival as compared to vehicle treated mice"}]}, {"smiles": "CCOC(=O)c1ccnc(CNCC(=O)N(CC)CCN(C)C)c1", "note": "[KDM5-C70]", "values": [{"measurement": "OCI-Ly1 cell viability, Jumonji-inhibitors", "setting": "OCI-Ly1", "result": "only JIB04 decreased OCI-Ly1 cell viability significantly"}]}, {"smiles": "CN(C)CCCNC(=O)c1ccc(-c2cc(O)c3ncccc3c2)cc1", "note": "[ML324]", "values": [{"measurement": "OCI-Ly1 cell viability, Jumonji-inhibitors", "setting": "OCI-Ly1", "result": "only JIB04 decreased OCI-Ly1 cell viability significantly"}]}, {"smiles": "O=[N+]([O-])c1cc([N+](=O)[O-])c(/C=C/c2ccc(Cl)c(Cl)c2)cc1/C=C/c1ccc(Cl)c(Cl)c1", "note": "[NSC636819]", "values": [{"measurement": "OCI-Ly1 cell viability, Jumonji-inhibitors", "setting": "OCI-Ly1", "result": "only JIB04 decreased OCI-Ly1 cell viability significantly"}]}, {"smiles": "Cc1cc(/C=C/c2ccc3cc(N(C)C)ccc3[n+]2C)c(C)n1-c1ccccc1", "note": "[Pyrvinium]", "values": [{"measurement": "sensitivity of DLBCL cell lines", "setting": "DLBCL cell lines; FIG. 22", "result": "sensitive to Pyrvinium"}]}]}
